Measured values from US8058306B2, “Phenyl pyrrole aminoguanidine derivatives” (Action Pharma A/S, priority 2006, dated 2011).
Values joined by “and” are separate entries in the source; they are usually repeats but may differ in a detail not shown here. Equal values may be shown once. “Also recorded” adds a separate entry of the source. Read-outs that look alike come from different tables or passages of the source.

Assay: Plasma kinetics in rat following intravenous and oral administration;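 for AUC0-∞: parameter is AUC from zero to infinity in ng·h/mL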
Format: in vivo, Sprague Dawley rats
Protocol: This study determined the intravenous pharmacokinetics and oral bioavailability of compound 1 of the invention (see FIG. 1A, structure no. 1), compound 2 of the invention (see FIG. 1D, structure no. 19) and compound 3 of the invention (see FIG. 1I, structure no. 53) following administration to Sprague Dawley rats at a dose level of 10 mg/kg.
Six groups of 3 male rats received either a single intravenous or single oral administration of compound 1, 2 or 3 of the invention at a dose level of 10 mg/kg. Blood samples were obtained at various times after dosing. Plasma samples were analysed for unchanged test item using a suitable LC-MS/MS method. Pharmacokinetic parameters were estimated from individual plasma concentrations.
Eighteen male rats each received either a single intravenous or a single oral administration of either compound 1, 2 or 3 at a dose level of 10 mg/kg. The formulation was orally administered to each animal by gastric gavage and intravenously administered to each animal via a tail vein. The dose was administered at a dose volume of 5 mL/kg. The formulations were administered to each animal according to the details in the following table:
Blood samples (ca 0.3 mL) were removed from the femoral vein of each animal into tubes containing lithium heparin as anticoagulant.
Blood samples were collected from 3 rats at the following times after dose administration: • 3, 6, 15, 45 min and 1.5, 2.5, 4, 6, 8, 24 h post dose. Oral Administration
Blood samples were collected from 3 rats at the following times after dose administration: • 5, 15, 45 min and 1.5, 2.5, 4, 6, 8, 24 h post dose. Processing of Blood Samples
Pharmacokinetic parameters of compound 1, 2 and 3 were derived by non-compartmental analysis using WinNonLin Pro version 5.0.1 (Pharsight 2005). The following parameters were derived, where appropriate, from the individual plasma concentration versus time profiles:
• F % The absolute oral bioavailability calculated as [AUC0-t (oral)*Dose(iv)/AUC0-t (iv)*Dose (oral)]*100 based on mean values derived after oral and intravenous administration Consideration was given to the estimation of λz and corresponding t1/2 values. Three or more points are required within the terminal phase for λz and t1/2 to be estimated. The following additional variables were tabulated to aid identification of potentially unreliable estimates of t1/2 and AUC:
Pharmacokinetic parameters were reported as geometric mean except Tmax which was reported as the median. Geometric coefficient of variation was calculated as: […]
Actual sampling times were used for all calculations of pharmacokinetic parameters. Plasma concentrations that were below the limit of quantification were taken as zero for the pharmacokinetic analysis.

[1] = intravenous 10 mg/kg, male rats, individual animals, acetate, 10 mg/kg
[2] = male, Sprague Dawley, rat, plasma, iv, 10 mg/kg, single intravenous 10 mg/kg, male rats, individual animals, read-out: Sample Concentration in plasma
[3] = male, Sprague Dawley, rat, plasma, iv, 10 mg/kg, single intravenous 10 mg/kg, male rats, mean of 3, read-out: Mean Concentration in plasma

In the case of `N=C(N)NN=CC=Cc1cccn1-c1ccc(Cl)cc1` [Compound 1, [1-(4-chlorophenyl)-1H-pyrrol-2-yl-allylideneamino]guanidinium acetate], the bioavailability (Sprague Dawley, rat, plasma, 10 mg/kg oral vs intravenous, male rats, from mean AUC0-t, read-out: Mean absolute oral bioavailability) is reported as 34.8%, the “Between-animal variability in systemic exposure, coefficient of variation (CV) of AUC0-t” value (intravenous 10 mg/kg, male rats) is reported as “less than 20%” and the “AUC0-∞” value [1] is reported as 3.755 µg·h/mL and 3.394 µg·h/mL. For the same compound, the AUC(0-t) [1] was 3.662 µg·h/mL and 3.262 µg·h/mL, the C0 [1] was 5.834 µg/mL and 2.729 µg/mL and the CL [1] was 2.709 L/h/kg and 2.991 L/h/kg. The MRT [1] was 5.76 h, the Vss [1] was 15.606 L/kg and 19.225 L/kg and the t1/2 [1] was 4.87 h and 5.44 h. For the same compound, the “Systemic clearance (in words)” value (intravenous 10 mg/kg, rats) was “moderate”, the “volume of distribution compared with total body water (in words)” value (intravenous 10 mg/kg, rats, total body water 668 mL/kg, acetate, 10 mg/kg) was “exceeded the total body water; also recorded: markedly greater than that of the total body water” and the “systemic plasma clearance (CL) as share of hepatic blood flow in rats” value (intravenous 10 mg/kg, hepatic blood flow 3312 mL/h/kg) was “approximately 82%”. It also gave an AUC(0-inf) (male, Sprague Dawley, rat, plasma, iv, 10 mg/kg, intravenous 10 mg/kg, male rats, Arithmetic Mean) of 3.77 µg·h/mL, an AUC(0-t) (male, Sprague Dawley, rat, plasma, iv, 10 mg/kg, intravenous 10 mg/kg, male rats, Arithmetic Mean, read-out: AUC0-t) of 3.6 µg·h/mL and a C0 (male, Sprague Dawley, rat, plasma, iv, 10 mg/kg, intravenous 10 mg/kg, male rats, Arithmetic Mean, read-out: C0) of 4.21 µg/mL. It also gave a clearance (male, Sprague Dawley, rat, plasma, iv, 10 mg/kg, intravenous 10 mg/kg, male rats, Arithmetic Mean, read-out: CL (converted)) of 2.72 L/h/kg, an MRT (male, Sprague Dawley, rat, plasma, iv, 10 mg/kg, intravenous 10 mg/kg, male rats, Arithmetic Mean, read-out: MRT) of 6.5 h and a Vd (male, Sprague Dawley, rat, plasma, iv, 10 mg/kg, intravenous 10 mg/kg, male rats, Arithmetic Mean, read-out: Vss) of 17.6 L/kg. For the same compound, the half-life (male, Sprague Dawley, rat, plasma, iv, 10 mg/kg, intravenous 10 mg/kg, male rats, Arithmetic Mean, read-out: t1/2 (converted)) was 5.77 h, the AUC(0-inf) (male, Sprague Dawley, rat, plasma, iv, 10 mg/kg, intravenous 10 mg/kg, male rats, Geometric mean) was 3.76 µg·h/mL and the AUC(0-t) (male, Sprague Dawley, rat, plasma, iv, 10 mg/kg, intravenous 10 mg/kg, male rats, Geometric mean, read-out: AUC0-t) was 3.59 µg·h/mL. For the same compound, the C0 (male, Sprague Dawley, rat, plasma, iv, 10 mg/kg, intravenous 10 mg/kg, male rats, Geometric mean, read-out: C0) was 4.02 µg/mL, the clearance (male, Sprague Dawley, rat, plasma, iv, 10 mg/kg, intravenous 10 mg/kg, male rats, Geometric mean, read-out: CL (systemic plasma clearance) (converted)) was 2.71 L/h/kg and the MRT (male, Sprague Dawley, rat, plasma, iv, 10 mg/kg, intravenous 10 mg/kg, male rats, Geometric mean, read-out: MRT) was 6.47 h. For the same compound, the Vd (male, Sprague Dawley, rat, plasma, iv, 10 mg/kg, intravenous 10 mg/kg, male rats, Geometric mean, read-out: Vss (mean apparent volume of distribution)) was 17.5 L/kg, the half-life (male, Sprague Dawley, rat, plasma, iv, 10 mg/kg, intravenous 10 mg/kg, male rats, Geometric mean, read-out: t1/2 (mean apparent terminal half-life) (converted)) was 5.7 h and the AUC(0-inf) (male, Sprague Dawley, rat, plasma, iv, 10 mg/kg, intravenous 10 mg/kg, male rats, Median) was 3.75 µg·h/mL. It also gave an AUC(0-t) (male, Sprague Dawley, rat, plasma, iv, 10 mg/kg, intravenous 10 mg/kg, male rats, Median, read-out: AUC0-t) of 3.66 µg·h/mL, a C0 (male, Sprague Dawley, rat, plasma, iv, 10 mg/kg, intravenous 10 mg/kg, male rats, Median, read-out: C0) of 4.07 µg/mL and a clearance (male, Sprague Dawley, rat, plasma, iv, 10 mg/kg, intravenous 10 mg/kg, male rats, Median, read-out: CL (converted)) of 2.71 L/h/kg. The MRT (male, Sprague Dawley, rat, plasma, iv, 10 mg/kg, intravenous 10 mg/kg, male rats, Median, read-out: MRT) was 6.43 h, the Vd (male, Sprague Dawley, rat, plasma, iv, 10 mg/kg, intravenous 10 mg/kg, male rats, Median, read-out: Vss) was 17.9 L/kg and the half-life (male, Sprague Dawley, rat, plasma, iv, 10 mg/kg, intravenous 10 mg/kg, male rats, Median, read-out: t1/2 (converted)) was 5.44 h. For the same compound, the AUC(0-inf) (male, Sprague Dawley, rat, plasma, iv, 10 mg/kg, intravenous 10 mg/kg, male rats, individual animals) was 4.18 µg·h/mL, the AUC(0-t) (male, Sprague Dawley, rat, plasma, iv, 10 mg/kg, intravenous 10 mg/kg, male rats, individual animals, read-out: AUC0-t) was 3.87 µg·h/mL and the clearance (male, Sprague Dawley, rat, plasma, iv, 10 mg/kg, intravenous 10 mg/kg, male rats, individual animals, read-out: CL (converted)) was 2.45 L/h/kg. It also gave an MRT (male, Sprague Dawley, rat, plasma, iv, 10 mg/kg, intravenous 10 mg/kg, male rats, individual animals, read-out: MRT) of 7.31 h, a Vd (male, Sprague Dawley, rat, plasma, iv, 10 mg/kg, intravenous 10 mg/kg, male rats, individual animals, read-out: Vss) of 17.9 L/kg and a half-life (male, Sprague Dawley, rat, plasma, iv, 10 mg/kg, intravenous 10 mg/kg, male rats, individual animals, read-out: t1/2 (converted)) of 7 h. For the same compound, the concentration at 0.05 h (male, Sprague Dawley, rat, plasma, iv, 10 mg/kg, single intravenous 10 mg/kg, male rats, 0.05 h (3 min), mean of 3, read-out: Mean Concentration in plasma) was 2.25 µg/mL, the concentration at 0.1 h [2] was 0.941 µg/mL and the concentration at 0.1 h [3] was 1.12 µg/mL. It also gave a concentration at 0.25 h [2] of 0.589 µg/mL, a concentration at 0.25 h [3] of 0.705 µg/mL and a concentration at 0.75 h [2] of 0.441 µg/mL. For the same compound, the concentration at 0.75 h [3] was 0.392 µg/mL, the concentration at 1.5 h [2] was 0.347 µg/mL and the concentration at 1.5 h [3] was 0.308 µg/mL. The concentration at 2.5 h [2] was 0.239 µg/mL, the concentration at 2.5 h [3] was 0.233 µg/mL and the concentration at 4 h [2] was 0.317 µg/mL. The concentration at 4 h [3] was 0.254 µg/mL, the concentration at 6 h [2] was 0.14 µg/mL and the concentration at 6 h [3] was 0.16 µg/mL. It also gave a concentration at 8 h (male, Sprague Dawley, rat, plasma, iv, 10 mg/kg, single intravenous 10 mg/kg, male rats, 8 h, mean, read-out: Mean Concentration in plasma) of 0.097 µg/mL, a concentration at 24 h (male, Sprague Dawley, rat, plasma, iv, 10 mg/kg, single intravenous 10 mg/kg, male rats, 24 h, mean, read-out: Mean Concentration in plasma) of 0.0202 µg/mL and an AUC(0-t) (male, Sprague Dawley, rat, plasma, po, 10 mg/kg, oral 10 mg/kg, male rats, Arithmetic Mean, read-out: AUC0-t) of 1.35 µg·h/mL.
